What follows are compounds tested against galectin-3 (Homo sapiens (Human), UniProt P17931) (assay: Fluorescence anisotropy assay of galectin-3 affinity (compound inhibits galectin binding to a fluorescein tagged saccharide probe)). Details: high affinity probe, 50 nM galectin-3, 100 nM albumin.
Procedure: 100 nM albumin was included as a carrier to prevent protein loss at such low concentration of galectin.

Sequence of galectin-3 (P17931 whole entry): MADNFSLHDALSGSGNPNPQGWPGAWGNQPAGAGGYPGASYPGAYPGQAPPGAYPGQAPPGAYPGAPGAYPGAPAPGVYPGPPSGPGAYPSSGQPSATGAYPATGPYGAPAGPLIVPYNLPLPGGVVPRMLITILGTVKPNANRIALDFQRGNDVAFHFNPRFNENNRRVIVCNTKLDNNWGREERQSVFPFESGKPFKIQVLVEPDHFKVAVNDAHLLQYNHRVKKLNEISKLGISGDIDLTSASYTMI

Point of comparison: Cc1cccc(S[C@H]2O[C@H](CO)[C@H](O)[C@H](n3cc(-c4cc(F)c(F)c(F)c4)nn3)[C@H]2O)c1 [Example 13, 3-Methylphenyl 3-deoxy-3-[4-(3,4,5-trifluorophenyl)-1H-1,2,3-triazol-1-yl]-1-thio-α-D-galactopyranoside], Kd 240 nM. Against it:
- [O-][S+](c1cncc(Br)c1)[C@H]1O[C@H](CO)[C@H](O)[C@H](n2cc(-c3cc(F)c(F)c(F)c3)nn2)[C@H]1O (single isomer, unassigned; isomer 1) [Example 90, 5-Bromopyridin-3-yl 3-deoxy-3-[4-(3,4,5-trifluorophenyl)-1H-1,2,3-triazol-1-yl]-α-D-galactopyranosyl sulfoxide, isomer 1] — 8.6-fold lower, 28 nM
- [O-][S+](c1cncc(Cl)c1)[C@H]1OC(CO)[C@H](O)[C@H](n2cc(-c3cc(F)c(F)c(F)c3)nn2)C1O (single isomer, unassigned; isomer 1) [Example 93, 5-Chloropyridin-3-yl 3-deoxy-3-[4-(3,4,5-trifluorophenyl)-1H-1,2,3-triazol-1-yl]-α-D-galactopyranosyl sulfoxide, isomer 1] — 2.3-fold lower, 106 nM
- [O-][S+](c1cncc(Br)c1)[C@H]1O[C@H](CO)[C@H](O)[C@H](n2cc(-c3cc(F)c(F)c(F)c3)nn2)[C@H]1O (single isomer, unassigned; isomer 2) [Example 91, 5-Bromopyridin-3-yl 3-deoxy-3-[4-(3,4,5-trifluorophenyl)-1H-1,2,3-triazol-1-yl]-α-D-galactopyranosyl sulfoxide, isomer 2] — 1.8-fold lower, 130 nM
- [O-][S+](c1cncc(Cl)c1)[C@H]1OC(CO)[C@H](O)[C@H](n2cc(-c3cc(F)c(F)c(F)c3)nn2)C1O (single isomer, unassigned; isomer 2) [Example 94, 5-Chloropyridin-3-yl 3-deoxy-3-[4-(3,4,5-trifluorophenyl)-1H-1,2,3-triazol-1-yl]-α-D-galactopyranosyl sulfoxide, isomer 2] — 5.9-fold lower, 41 nM
- Cc1ccc(S[C@H]2O[C@H](CO)[C@H](O)[C@H](n3cc(-c4cc(F)c(F)c(F)c4)nn3)[C@H]2O)cc1C [Example 1, 3,4-Dimethylphenyl 3-deoxy-3-[4-(3,4,5-trifluorophenyl)-1H-1,2,3-triazol-1-yl]-1-thio-α-D-galactopyranoside] — 1.6-fold lower, 150 nM
- OC[C@H]1O[C@H](Sc2cccc(Br)c2)[C@H](O)[C@@H](n2cc(-c3cc(F)c(F)c(F)c3)nn2)[C@H]1O [Example 2, 3-Bromophenyl 3-deoxy-3-[4-(3,4,5-trifluorophenyl)-1H-1,2,3-triazol-1-yl]-1-thio-α-D-galactopyranoside] — 6.5-fold lower, 37 nM
- CCOc1cccc(S[C@H]2O[C@H](CO)[C@H](O)[C@H](n3cc(-c4cc(F)c(F)c(F)c4)nn3)[C@H]2O)c1 [Example 3, 3-Ethoxyphenyl 3-deoxy-3-[4-(3,4,5-trifluorophenyl)-1H-1,2,3-triazol-1-yl]-1-thio-α-D-galactopyranoside] — 1.8-fold higher, 420 nM
- OC[C@H]1O[C@H](Sc2ccncc2)[C@H](O)[C@@H](n2cc(-c3cc(F)c(F)c(F)c3)nn2)[C@H]1O [Example 4, 4-Pyridyl 3-deoxy-3-[4-(3,4,5-trifluorophenyl)-1H-1,2,3-triazol-1-yl]-1-thio-α-D-galactopyranoside] — within 1.5-fold, 190 nM
- OC[C@H]1O[C@H](Sc2ccc(Cl)cc2Cl)[C@H](O)[C@@H](n2cc(-c3cc(F)c(F)c(F)c3)nn2)[C@H]1O [Example 5, 2,4-Dichlorophenyl 3-deoxy-3-[4-(3,4,5-trifluorophenyl)-1H-1,2,3-triazol-1-yl]-1-thio-α-D-galactopyranoside] — 2.7-fold higher, 650 nM
- COc1ccc(S[C@H]2OC(CO)[C@H](O)[C@H](n3cc(-c4cc(F)c(F)c(F)c4)nn3)C2O)cc1 (stereo partly drawn) [Example 7, 4-Methoxyphenyl 3-deoxy-3-[4-(3,4,5-trifluorophenyl)-1H-1,2,3-triazol-1-yl]-1-thio α-D-galactopyranoside] — 1.7-fold higher, 410 nM
- OC[C@H]1O[C@H](Sc2cccc(Cl)c2Cl)[C@H](O)[C@@H](n2cc(-c3cc(F)c(F)c(F)c3)nn2)[C@H]1O [Example 8, 2,3-Dichlorophenyl 3-deoxy-3-[4-(3,4,5-trifluorophenyl)-1H-1,2,3-triazol-1-yl]-1-thio-α-D-galactopyranoside] — 2.2-fold higher, 530 nM
- OCC1O[C@H](SCc2ccccc2)C(O)[C@@H](n2cc(-c3cc(F)c(F)c(F)c3)nn2)[C@H]1O (stereo partly drawn) [Example 10, Benzyl 3-deoxy-1-thio-3-[4-(3,4,5-trifluorophenyl)-1H-1,2,3-triazol-1-yl]-1-thio-α-D-galactopyranoside] — 4.7-fold higher, 1130 nM
- OCC1O[C@H](Sc2ccc3ccccc3c2)C(O)[C@@H](n2cc(-c3cc(F)c(F)c(F)c3)nn2)[C@H]1O (stereo partly drawn) [Example 12, 2-Naphtyl 3-deoxy-3-[4-(3,4,5-trifluorophenyl)-1H-1,2,3-triazol-1-yl]-1-thio-α-D-galactopyranoside] — within 1.5-fold, 180 nM
- OC[C@H]1O[C@H](Sc2cccc(C(F)(F)F)c2)[C@H](O)[C@@H](n2cc(-c3cc(F)c(F)c(F)c3)nn2)[C@H]1O [Example 14, 3-(Trifluoromethyl)phenyl 3-deoxy-3-[4-(3,4,5-trifluorophenyl)-1H-1,2,3-triazol-1-yl]-1-thio-α-D-galactopyranoside] — 1.8-fold lower, 130 nM
- OC[C@H]1O[C@H](Sc2ccc(Br)cc2)[C@H](O)[C@@H](n2cc(-c3cc(F)c(F)c(F)c3)nn2)[C@H]1O [Example 15, 4-Bromophenyl 3-deoxy-3-[4-(3,4,5-trifluorophenyl)-1H-1,2,3-triazol-1-yl]-1-thio-α-D-galactopyranoside] — 2.2-fold higher, 520 nM
- OC[C@H]1O[C@H](Sc2cc(Cl)cc(Cl)c2)[C@H](O)[C@@H](n2cc(-c3cc(F)c(F)c(F)c3)nn2)[C@H]1O [Example 16, 3,5-Dichlorophenyl 3-deoxy-3-[4-(3,4,5-trifluorophenyl)-1H-1,2,3-triazol-1-yl]-1-thio-α-D-galactopyranoside] — 3-fold lower, 80 nM
- Cc1cccc(C)c1S[C@H]1O[C@H](CO)[C@H](O)[C@H](n2cc(-c3cc(F)c(F)c(F)c3)nn2)[C@H]1O [Example 17, 2,6-Dimethylphenyl 3-deoxy-3-[4-(3,4,5-trifluorophenyl)-1H-1,2,3-triazol-1-yl]-1-thio-α-D-galactopyranoside] — 6.6-fold higher, 1580 nM
- OCC1O[C@H](Sc2cccc3ccccc23)C(O)[C@@H](n2cc(-c3cc(F)c(F)c(F)c3)nn2)[C@H]1O (stereo partly drawn) [Example 18, 1-Naphthyl 3-deoxy-1-thio-3-[4-(3,4,5-trifluorophenyl)-1H-1,2,3-triazol-1-yl]-1-thio-α-D-galactopyranoside] — 4-fold higher, 960 nM
- OC[C@H]1O[C@H](Sc2cccc(Cl)c2)[C@H](O)[C@@H](n2cc(-c3cc(F)c(F)c(F)c3)nn2)[C@H]1O [Example 19, 3-Chlorophenyl 3-deoxy-3-[4-(3,4,5-trifluorophenyl)-1H-1,2,3-triazol-1-yl]-1-thio-α-D-galactopyranoside] — 4.9-fold lower, 49 nM
- OC[C@H]1O[C@H](Sc2cccc(OC(F)(F)F)c2)[C@H](O)[C@@H](n2cc(-c3cc(F)c(F)c(F)c3)nn2)[C@H]1O [Example 20, 3-(Trifluoromethoxy)phenyl 3-deoxy-3-[4-(3,4,5-trifluorophenyl)-1H-1,2,3-triazol-1-yl]-1-thio-α-D-galactopyranoside] — 2.1-fold higher, 500 nM
- OCC1O[C@H](Sc2ccccn2)C(O)[C@@H](n2cc(-c3cc(F)c(F)c(F)c3)nn2)[C@H]1O (stereo partly drawn) [Example 21, 2-Pyridyl 3-deoxy-3-[4-(3,4,5-trifluorophenyl-1H-1,2,3-triazol-1-yl]-)-1-thio-α-D-galactopyranoside] — 2.1-fold higher, 510 nM

Source: patent publication US10774102B2, “Galactoside inhibitor of galectins” (Galecto Biotech AB, priority 2015, dated 2020)
